Experimental findings from PubChem BioAssay AID652087 (The Scripps Research Institute Molecular Screening Center, 2013) are described below.

A word on the inhibition: it is the drop in the measured response relative to a control, in per cent.

SMILES strings stand for the structures. Activity calls are given as the source filed them.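 The calls were made as follows: active = inhibition above 30%; inactive = inhibition at or below 30%.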

The target of the experiment is Sphingosine 1-phosphate receptor 1 (Homo sapiens) (UniProt P21453). As to the kind of experiment: S1P1 receptor antagonists, human, confirmation, counter-screen for OPRK1 antagonist project, cell-based, fluorescence (AID 652087). The note with it: Tango EDG-1-bla U2OS, beta-lactamase FRET, S1P antagonism; at 9 µM; hits give high values. For orientation: A counterscreen serves to expose hits that act by an unwanted route or on another target.
Sphingosine 1-phosphate receptor 1 (Homo sapiens), sequence (P21453 whole entry, looked up): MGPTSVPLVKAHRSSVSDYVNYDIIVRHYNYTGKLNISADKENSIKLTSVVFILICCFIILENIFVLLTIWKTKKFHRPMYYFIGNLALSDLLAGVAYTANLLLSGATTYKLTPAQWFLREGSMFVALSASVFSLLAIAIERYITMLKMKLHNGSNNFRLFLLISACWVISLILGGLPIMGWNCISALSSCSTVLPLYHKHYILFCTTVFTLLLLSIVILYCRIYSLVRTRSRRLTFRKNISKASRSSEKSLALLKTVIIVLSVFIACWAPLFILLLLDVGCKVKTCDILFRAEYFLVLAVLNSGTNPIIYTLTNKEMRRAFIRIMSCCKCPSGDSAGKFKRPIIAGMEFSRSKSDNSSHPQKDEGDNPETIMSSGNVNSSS
`Nc1c(C(=O)N/N=C/c2ccc3c(c2)OCO3)sc2nnc(-c3ccccc3)c(-c3ccccc3)c12`: the inhibition was 65%.
Then `CCOC(=O)c1cc(C(=O)OC)c(C)nc1N1CCC(NC2CCCCC2O)CC1` (stereo unspecified), with -1.54% (inactive).
For `NC(=NC(=O)c1cccc(C(F)(F)F)c1)c1ccc(C(F)(F)F)cn1`, the inhibition is 47.1%.
Then `O=[N+]([O-])c1ccc(N/N=C/c2ccc(-c3cccs3)s2)nc1`, with 79.4%.
Then `COc1cccc(/C=C(\C#N)c2ccc([N+](=O)[O-])cc2)c1OC`, with 52.1%; and `C=CCNC(=S)NNC(=O)c1oc2nc(-c3ccc(Cl)cc3)cc(-c3ccccc3)c2c1N`, with 8.18% (inactive).
Then `CCCCCC[n+]1ccccc1/C=C/c1ccc(N(C)C)cc1`, with 99.1%; and `O=C(NNC(=O)C(F)(F)F)c1ccc[nH]1`, with -19.8% (inactive).
For `N#Cc1cccc(C#N)c1Oc1ccc(N)cc1`, the inhibition was 15.3% (inactive).
Then `COc1ccccc1C1CCN(Cc2ccc3c(c2)CCC(C)(C)O3)CC1`, with -5.53% (inactive); and `O=C(c1cnn(-c2ccc(Cl)cc2)c1C(F)(F)F)N1CCN(c2ncnc3ccsc23)CC1`, with -19.1% (inactive).
As to `CN(C)c1cccc2c1c(NC(=O)Nc1ccc(OCc3ccccc3)cc1)nn2C`, the inhibition was -0.3% (inactive).
For the compound `CCCCNc1ccc2c3c(cccc13)C(=O)N(CCCC)C2=O`, the inhibition was 93.5%.
Regarding `CCOC(=O)C1CCN(Cc2cccc(NC(=O)c3cccs3)c2)CC1`, the inhibition is 15.1% (inactive).
Turning to `O=[N+]([O-])c1ccc(-c2ccc(/C=N/NC(=S)Nc3cccc(F)c3)o2)cc1`, the inhibition is 67.9%.
Turning to `CSc1sc(C(=O)NC(=O)Nc2ccc(Cl)cc2)c2c1-c1nocc1CC2`, the inhibition is 18.7% (inactive).
Regarding `C=CCn1c(-c2sc3nnc(-c4ccccc4)c(-c4ccccc4)c3c2N)n[nH]c1=S`, the inhibition is 33.4%.
The figure for `CC(CCC(C)OC(=O)c1ccccc1C(=O)O)OC(=O)c1ccccc1C(=O)O` (stereo unspecified) is -6.9% (inactive); for `CN(C)c1cc(NC(=O)Nc2ccccc2)c2ccccc2n1` it is -14.9% (inactive).
On to `CC(=O)N1CCC(C(=O)O/N=C(\N)c2ccc(Cl)cc2)CC1`, for which the inhibition was 16.3% (inactive).
Then `COC(=O)/C=C1\SC(=Nc2ccc(Cl)cc2)N(c2ccc(Cl)cc2)C1=O`, with 42.5%; and `Oc1c(Cl)cc(Cl)cc1C1Nc2cc(Cl)c(C(F)(F)F)cc2N1` (stereo unspecified), with 38.5%.
Then `COC(=O)c1cnn(-c2ccc(Cl)cc2)c1C=C(C#N)C#N`, with 45.1%.
For `N#Cc1c(S/C=C(\O)c2cc3ccccc3o2)nc2c(c1C(F)(F)F)CCCC2`, the inhibition is 14.5% (inactive).
Then `CCOC(=O)c1ccc(N2CC3CCCCN3C2c2cccc(OC)c2O)cc1` (stereo unspecified), with -25.2% (inactive); and `CS(=O)(=O)/C(C#N)=C\c1ccc(Cl)s1`, with -11.8% (inactive).
The figure for `O=[N+]([O-])c1c(Sc2ccc(Cl)cc2)ccc2nsnc12` is 76.9%.
The figure for `COc1ccccc1NC(=O)NCCN1CCN(Cc2ccccc2)CC1` is 66.8%; for `Clc1ccc2c(Nc3ccc4c(c3)OCO4)ccnc2c1` it is -9.65% (inactive); for `O=C(O)C(F)(F)C(F)(F)C(=O)NCc1cccc(Cl)c1` it is -3.44% (inactive).
In the case of `COc1ccc([N+](=O)[O-])c(S(=O)(=O)c2ccc(Cl)cc2)n1`, the inhibition was 12.7% (inactive).
The figure for `CC(=O)c1sc2nc(-c3cccs3)cc(C(F)(F)F)c2c1N` is 2.13% (inactive); for `N#Cc1cccnc1NNC(=O)COCC(=O)O` it is 86.5%.
Then `COc1cc([N+](=O)[O-])c(OC)cc1SCc1n[nH]c(=S)n1-c1ccc(C)cc1`, with 3.13% (inactive).
Then `CCOC(=O)[C@@H](N)CCSC`, with -3.49% (inactive); and `O=C(/C=C/c1cc(-c2ccccc2)c(C(F)(F)F)s1)c1cccs1`, with 23.6% (inactive); and `c1ccc(-c2cc3ncnc(NCc4ccc5c(c4)OCO5)c3s2)cc1`, with 4.01% (inactive).
For the compound `Brc1ccc(-c2csc(Nc3ccncc3)n2)cc1`, the inhibition is 65.4%.
Then `O=C(Nc1ccc([N+](=O)[O-])cc1)Nc1csc(-c2cccnc2)n1`, with 5.35% (inactive).
Then `CC(=O)Nc1onc(C)c1-c1nc(-c2ccc(Cl)cc2Cl)cs1`, with -6.28% (inactive); and `O=[N+]([O-])c1ccc(C2=NN(c3ccccc3)C(c3ccco3)C2)cc1` (stereo unspecified), with 124%; and `O=C(N/C(=C\c1ccc(-c2ccc([N+](=O)[O-])cc2)o1)c1nc2ccccc2[nH]1)c1ccccc1`, with 73.1%.
In the case of `Nc1c(C(=O)c2ccccc2)sc2nsc(SCCN3CCCC3)c12`, the inhibition was 27.5% (inactive).
Take `COC(=O)c1ccc(/C=C2\C(=O)Nc3ccccc32)n1-c1ccc(F)cc1`: the inhibition was 9.9% (inactive).
Turning to `CCCCCCCCCCCC(=O)ON1C(=O)CCC1=O`, the inhibition is 51.2%.
The figure for `S=C(NNc1c(Cl)cncc1Cl)Nc1ccc(Cl)cc1Cl` is 45.3%; for `CCOC(=O)c1cn[nH]c1NC(=S)Nc1cccc(C(F)(F)F)c1` it is 71.7%; for `COC(=O)c1cc(-c2ccc(OC)cc2)c(-c2ccc(OC)cc2)s1` it is 9.19% (inactive).
As for `O=C(Nc1ccc(Cl)cc1Cl)c1cc([N+](=O)[O-])cc2c1-c1ccc([N+](=O)[O-])cc1C2=O`, the inhibition was 63.3%.
Turning to `O=[N+]([O-])c1ccc(-c2ccc(/C=N/Nc3ccccc3)o2)cc1`, the inhibition was 92.1%.
With `CN(C)c1ccc(-n2nnnc2SCc2ccc(Cl)cc2)cc1`, the inhibition is 37.2%.
Regarding `O=c1c2cc(-c3ccccc3)sc2nnn1/N=C/c1cccs1`, the inhibition was 15.2% (inactive).
Take `Cn1c(=O)c2cc3cc(Cl)ccc3nc2c2c(=O)n(-c3ccccc3)c(=O)n(-c3ccccc3)c21`: the inhibition was 59.2%.
Then `Clc1ccc2nc3c(nc2c1)Nc1ccccc1S3`, with 94.9%; and `COc1ccc(OS(=O)(=O)c2sc(Br)cc2Br)cc1`, with 11.6% (inactive); and `CSc1ccc(/C=C/c2onc(C)c2[N+](=O)[O-])s1`, with 10.1% (inactive).
As for `COc1cccc(C(=O)c2sc3nsc(SCc4ccc(F)cc4)c3c2N)c1`, the inhibition is -12.7% (inactive).
The figure for `O=[N+]([O-])c1ccc(N2CCc3ccccc32)cc1` is 36.8%; for `Cc1ccc(/C=c2\sc3nc4ccccc4n3c2=O)o1` it is -0.81% (inactive); for `O=C(Nc1ccc(F)c(Cl)c1)c1cc(Br)ccc1O` it is 51.5%.
Take `O=C1c2ccc(Cl)c3c(N4CCSCC4)ccc(c23)C(=O)N1c1ccccc1`: the inhibition is -15.7% (inactive).
As for `O=[N+]([O-])c1ccc(N/N=C2\CCOc3ccc(F)cc32)cc1`, the inhibition is 23.2% (inactive).
Then `CC1COC(c2cccc([N+](=O)[O-])c2)N1` (stereo unspecified), with 2.16% (inactive); and `CCOC(=O)C1CCN(Cc2cccc(NC(=O)c3ccco3)c2)CC1`, with 15.4% (inactive).
As to `CCN(CC)c1ccc(/C=C/c2ccc([N+](=O)[O-])cc2C#N)cc1`, the inhibition is 55.7%.
As for `C#Cc1cccc(NC(=O)c2sc3nc4c(c(-c5cccs5)c3c2N)CCCC4)c1`, the inhibition is 46.3%.
